Data published in US20090281120A1, “BICYCLIC HETEROCYCLIC COMPOUND” (ONO PHARMACEUTICAL CO., LTD, priority 2005, published 2009).
pIC50: −log10 of the molar value.

Experiments:
human CRF receptor I [1] = target: T1, human CRF receptor I (Homo sapiens, UniProt P34998); experiment: Binding assay (125I-CRF, membrane fraction); settings: 125I-CRF 0.25 nM; membrane fraction of CHO-K1 cells forcedly expressing human CRF receptor I; room temperature, 2 hours
T1 construct: expressed in transfected cells; host or cells: CHO-K1
T1 sequence (P34998 24-415): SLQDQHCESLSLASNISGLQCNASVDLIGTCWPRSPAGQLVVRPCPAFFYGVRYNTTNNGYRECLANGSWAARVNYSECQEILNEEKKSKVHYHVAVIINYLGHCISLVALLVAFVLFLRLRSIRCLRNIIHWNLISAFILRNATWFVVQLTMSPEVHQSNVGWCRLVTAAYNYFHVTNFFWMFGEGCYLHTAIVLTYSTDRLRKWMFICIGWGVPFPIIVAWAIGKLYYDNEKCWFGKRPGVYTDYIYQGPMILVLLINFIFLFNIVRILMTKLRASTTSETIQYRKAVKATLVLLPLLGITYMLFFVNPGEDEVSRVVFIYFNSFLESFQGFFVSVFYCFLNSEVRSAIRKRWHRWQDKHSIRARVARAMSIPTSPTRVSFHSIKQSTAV
Procedure: The forced-expression cell strain of the human CRF receptor I (parent strain is CHO-K1 cell) was cultured until the cell was confluent and collected with a scraper. The collected cells were washed twice with PBS, and were suspended with an ice-colded binding assay buffer (Tris-HCl (50 mM, pH 7.0), EDTA (2 mM, pH 8.0), and MgCl2 (10 mM))). After fractured with a dounce-type homogenizer, the suspended cells were centrifuged at 10,000 g, and a membrane fraction was collected. The collected membrane fraction was resuspended with a little amount of the binding assay buffer, thereafter diluted with the binding assay buffer so as to have a concentration of 1 mg/mL. The obtained membrane fraction was used for a binding assay.
^125I-CRF was diluted with the binding assay buffer so as to have a concentration of 0.5 nM, whereby 50 μL of the diluted ^125I-CRF was added to a siliconized 1.5-mL tube. Next, test drugs diluted at appropriate times, such as DMSO (for general binding) or 100 μM of CRF (for non-specific binding), was added to a […]. Finally, 50 μL of the membrane fraction was added thereto and the reaction was started (final concentration of ^125I-CRF was 0.25 nM). The tube was incubated at room temperature for 2 hours. […] A membrane binding count was measured using a γ counter.
The specific binding count was obtained by subtracting the non-specific count from the measured count.

human CRF receptor I [2] = target: T1, human CRF receptor I; experiment: Receptor antagonistic activity (cyclic AMP assay); type: cell-based; settings: forced expression cell strain of human CRF receptor I; stimulated with human/rat CRF; 37° C., 15 minutes; read-out: antagonistic activity against CRF IC50 value (accumulated cyclic AMP)
Procedure: The forced expression cell strain of the human CRF receptor I was cultured at 37° C. under 5% carbon dioxide and 95% air by using a Ham's F-12 medium (F-12 nutrient mixture) containing 10% bovine fetal serum and 1% antibiotic substance-antifungal agent. On the previous day before the cyclic AMP was measured, the cells were inoculated into a 96-well plate in an amount of 1×10^4 cell/well. On the measurement day, the cells were washed twice with a Ham's F-12 medium, whereby a solution of Ham's F-12 medium/1 mM 3-isobutyl-1-methylxanthine (assay medium) (178 μL) was added to each well. After the incubation at 37° C. for 10 minutes, test drug solutions (2 μL) in various concentrations were added thereto, or DMSO (2 μL) was added to a CRF group and a blank group. An assay medium (20 μL) containing 10 nM human/rat CRF was added to wells of a compound group and the CRF group. An assay medium (20 μL) containing 0.00001% acetic acid was added to the blank group. Each group was further incubated at 37° C. for 15 minutes. […] The accumulated cyclic AMP amounts were calculated by subtracting mean values of corresponding 2 wells in the blank group from that of 2 wells. The IC50 values were calculated with non-linear regression analysis by defining logarithm concentration of the compound as independent variable and an accumulated cyclic AMP amount as dependent variable.

pIC50 (human CRF receptor I [1]): 7.92
pIC50 (human CRF receptor I [2]): 7.39
SMILES: CCC(CC)c1cc(C)c2nc(-c3ccc(OC)cc3Cl)c(C)n2c1 [Example 7, 2-(2-chloro-4-methoxyphenyl)-6-(1-ethylpropyl)-3,8-dimethylimidazo[1,2-a]pyridine]
